# Read-outs that look alike come from different tables or passages of the source.
# How the values were obtained:
# Test in all cases: HotSpot kinase profiling
# Assay type in all cases: biochemical
# BRK = molecular target: T1, BRK (Homo sapiens, UniProt Q13882)
# T1 construct: purchased Reaction Biology Corp
# Method in brief: (§1)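 Radio-isotope P81 filtration format. Substrate + required cofactors in reaction buffer, kinase added, 2 h RT. Stop, wash with 0.1% phosphoric acid, detect. % inhibition vs DMSO; mean of duplicates where repeated.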
# c-Kit = molecular target: T2, c-Kit (Homo sapiens, UniProt P10721)
# T2 construct: purchased Reaction Biology Corp
# T2 sequence (P10721 26-976): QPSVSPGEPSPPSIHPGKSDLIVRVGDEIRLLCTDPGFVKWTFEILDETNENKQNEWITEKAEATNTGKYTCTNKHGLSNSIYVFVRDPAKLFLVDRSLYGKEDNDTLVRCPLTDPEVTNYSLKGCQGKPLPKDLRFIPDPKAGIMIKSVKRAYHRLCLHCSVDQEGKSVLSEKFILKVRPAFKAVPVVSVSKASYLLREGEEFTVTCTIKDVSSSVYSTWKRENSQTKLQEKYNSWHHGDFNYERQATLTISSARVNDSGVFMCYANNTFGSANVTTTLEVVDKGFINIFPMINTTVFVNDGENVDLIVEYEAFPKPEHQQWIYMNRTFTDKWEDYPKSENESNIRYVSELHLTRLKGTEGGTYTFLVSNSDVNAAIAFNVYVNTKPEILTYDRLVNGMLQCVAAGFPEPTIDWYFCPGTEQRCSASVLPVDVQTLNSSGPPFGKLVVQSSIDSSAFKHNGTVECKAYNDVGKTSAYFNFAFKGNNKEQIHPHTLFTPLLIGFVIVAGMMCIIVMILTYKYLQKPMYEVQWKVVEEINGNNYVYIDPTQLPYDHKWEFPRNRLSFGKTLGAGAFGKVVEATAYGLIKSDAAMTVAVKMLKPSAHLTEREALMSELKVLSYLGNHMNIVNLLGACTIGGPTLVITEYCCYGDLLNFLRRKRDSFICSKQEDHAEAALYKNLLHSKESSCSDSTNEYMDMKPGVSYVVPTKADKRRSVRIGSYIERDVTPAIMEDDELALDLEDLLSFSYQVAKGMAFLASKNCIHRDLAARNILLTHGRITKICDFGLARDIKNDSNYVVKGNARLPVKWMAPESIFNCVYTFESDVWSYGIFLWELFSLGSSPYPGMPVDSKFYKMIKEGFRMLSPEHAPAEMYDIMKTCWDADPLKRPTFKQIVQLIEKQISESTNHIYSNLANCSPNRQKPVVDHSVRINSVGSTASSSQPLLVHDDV
# Method in brief: as §1
# DAPK1 = molecular target: T3, DAPK1 (Homo sapiens, UniProt P53355)
# T3 construct: purchased Reaction Biology Corp
# T3 sequence (P53355 whole entry): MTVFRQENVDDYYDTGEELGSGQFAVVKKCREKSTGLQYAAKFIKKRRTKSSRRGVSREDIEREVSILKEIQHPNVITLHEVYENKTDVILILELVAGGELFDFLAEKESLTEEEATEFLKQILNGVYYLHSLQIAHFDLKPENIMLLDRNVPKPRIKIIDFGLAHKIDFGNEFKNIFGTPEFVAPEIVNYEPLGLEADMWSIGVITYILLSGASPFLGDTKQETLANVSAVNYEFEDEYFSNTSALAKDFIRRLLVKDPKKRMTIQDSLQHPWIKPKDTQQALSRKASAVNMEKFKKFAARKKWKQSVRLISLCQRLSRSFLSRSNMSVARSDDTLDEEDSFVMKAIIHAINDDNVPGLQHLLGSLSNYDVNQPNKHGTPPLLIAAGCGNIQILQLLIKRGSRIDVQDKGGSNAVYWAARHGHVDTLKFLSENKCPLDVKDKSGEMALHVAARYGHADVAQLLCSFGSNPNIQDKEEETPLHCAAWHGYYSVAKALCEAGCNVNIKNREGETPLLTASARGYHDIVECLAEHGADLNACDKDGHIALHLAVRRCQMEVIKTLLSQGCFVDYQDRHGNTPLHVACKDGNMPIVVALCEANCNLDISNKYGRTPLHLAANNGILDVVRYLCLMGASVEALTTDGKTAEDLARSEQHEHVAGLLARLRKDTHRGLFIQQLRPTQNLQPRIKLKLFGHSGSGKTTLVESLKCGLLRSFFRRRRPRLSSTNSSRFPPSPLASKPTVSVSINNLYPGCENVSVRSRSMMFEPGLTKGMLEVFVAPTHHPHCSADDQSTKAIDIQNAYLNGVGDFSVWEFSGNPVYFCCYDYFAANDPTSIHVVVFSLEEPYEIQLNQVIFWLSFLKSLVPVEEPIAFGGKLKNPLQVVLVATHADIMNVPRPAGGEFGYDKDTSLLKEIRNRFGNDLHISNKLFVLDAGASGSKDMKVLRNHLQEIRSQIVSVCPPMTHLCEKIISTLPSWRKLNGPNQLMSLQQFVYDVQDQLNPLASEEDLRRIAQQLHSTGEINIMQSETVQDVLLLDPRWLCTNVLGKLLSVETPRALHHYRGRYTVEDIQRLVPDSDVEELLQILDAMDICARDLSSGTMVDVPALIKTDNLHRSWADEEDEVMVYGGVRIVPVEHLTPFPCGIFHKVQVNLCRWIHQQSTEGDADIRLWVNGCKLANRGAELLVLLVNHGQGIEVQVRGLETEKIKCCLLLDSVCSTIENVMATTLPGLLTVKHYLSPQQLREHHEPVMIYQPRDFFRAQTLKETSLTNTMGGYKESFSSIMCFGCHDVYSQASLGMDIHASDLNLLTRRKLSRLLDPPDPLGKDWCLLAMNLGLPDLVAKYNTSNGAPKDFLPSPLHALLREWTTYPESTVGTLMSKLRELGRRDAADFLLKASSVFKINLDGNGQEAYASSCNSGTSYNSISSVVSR
# Method in brief: as §1
# CAMK2a = molecular target: T4, CAMK2a (Homo sapiens, UniProt Q9UQM7)
# T4 construct: purchased Reaction Biology Corp
# T4 sequence (Q9UQM7 whole entry): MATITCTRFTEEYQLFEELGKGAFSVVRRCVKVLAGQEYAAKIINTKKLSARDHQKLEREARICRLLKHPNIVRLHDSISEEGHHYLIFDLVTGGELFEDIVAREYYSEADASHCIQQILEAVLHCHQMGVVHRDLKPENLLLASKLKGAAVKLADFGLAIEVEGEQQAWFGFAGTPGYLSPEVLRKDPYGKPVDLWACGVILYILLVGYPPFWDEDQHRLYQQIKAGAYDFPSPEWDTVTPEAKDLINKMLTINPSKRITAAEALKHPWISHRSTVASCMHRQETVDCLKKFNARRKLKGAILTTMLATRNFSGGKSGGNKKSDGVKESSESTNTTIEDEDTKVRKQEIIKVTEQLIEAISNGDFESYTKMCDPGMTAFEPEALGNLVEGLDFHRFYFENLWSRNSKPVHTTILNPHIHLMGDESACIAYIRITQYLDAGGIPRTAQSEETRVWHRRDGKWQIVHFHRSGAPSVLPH
# Method in brief: as §1
# EPHA3 = molecular target: T5, EPHA3 (Homo sapiens, UniProt P29320)
# T5 construct: purchased Reaction Biology Corp
# T5 sequence (P29320 21-983): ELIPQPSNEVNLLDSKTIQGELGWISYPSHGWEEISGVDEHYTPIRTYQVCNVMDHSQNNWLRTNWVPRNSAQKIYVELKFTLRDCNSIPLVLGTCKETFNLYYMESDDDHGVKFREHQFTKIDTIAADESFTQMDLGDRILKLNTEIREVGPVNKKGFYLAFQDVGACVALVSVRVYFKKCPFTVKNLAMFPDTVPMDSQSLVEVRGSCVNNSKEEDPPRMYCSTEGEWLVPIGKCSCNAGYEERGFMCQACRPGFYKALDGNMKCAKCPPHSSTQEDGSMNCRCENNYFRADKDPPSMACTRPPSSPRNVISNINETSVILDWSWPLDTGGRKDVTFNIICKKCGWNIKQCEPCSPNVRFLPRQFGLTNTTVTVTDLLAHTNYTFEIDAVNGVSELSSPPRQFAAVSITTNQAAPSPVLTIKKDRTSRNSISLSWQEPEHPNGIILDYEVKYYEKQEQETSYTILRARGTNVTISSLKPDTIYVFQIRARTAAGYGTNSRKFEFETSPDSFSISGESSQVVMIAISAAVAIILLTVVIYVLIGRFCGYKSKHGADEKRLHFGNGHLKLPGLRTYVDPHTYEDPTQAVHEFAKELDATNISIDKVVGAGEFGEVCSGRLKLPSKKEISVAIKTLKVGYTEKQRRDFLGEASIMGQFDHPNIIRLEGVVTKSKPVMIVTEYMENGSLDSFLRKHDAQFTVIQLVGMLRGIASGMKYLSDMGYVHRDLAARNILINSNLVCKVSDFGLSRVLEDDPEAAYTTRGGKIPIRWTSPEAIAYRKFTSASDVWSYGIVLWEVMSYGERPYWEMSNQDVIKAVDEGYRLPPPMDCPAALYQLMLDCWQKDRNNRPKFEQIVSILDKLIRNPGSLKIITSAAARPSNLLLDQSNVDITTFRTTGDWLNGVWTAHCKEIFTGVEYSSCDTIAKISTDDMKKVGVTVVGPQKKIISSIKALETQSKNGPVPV
# Method in brief: as §1
# SRMS = molecular target: T6, SRMS (Homo sapiens, UniProt Q9H3Y6)
# T6 construct: purchased Reaction Biology Corp
# T6 sequence (Q9H3Y6 whole entry): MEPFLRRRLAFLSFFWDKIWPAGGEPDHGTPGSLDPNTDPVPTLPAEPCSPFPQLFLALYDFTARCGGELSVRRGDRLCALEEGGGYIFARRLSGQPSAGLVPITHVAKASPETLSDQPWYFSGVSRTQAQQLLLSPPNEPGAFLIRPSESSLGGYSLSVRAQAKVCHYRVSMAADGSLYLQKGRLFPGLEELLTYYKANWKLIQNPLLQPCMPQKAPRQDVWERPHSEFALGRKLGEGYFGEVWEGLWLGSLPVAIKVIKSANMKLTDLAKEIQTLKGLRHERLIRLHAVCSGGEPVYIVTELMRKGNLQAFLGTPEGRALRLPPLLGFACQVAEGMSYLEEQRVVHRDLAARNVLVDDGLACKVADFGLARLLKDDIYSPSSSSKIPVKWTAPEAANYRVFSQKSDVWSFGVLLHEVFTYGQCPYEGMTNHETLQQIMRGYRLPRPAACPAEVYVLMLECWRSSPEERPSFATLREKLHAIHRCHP
# Method in brief: as §1
# CDK5/p25 = molecular target: T7, CDK5/p25 (Homo sapiens, UniProt Q00535)
# T7 construct: purchased Reaction Biology Corp
# T7 sequence (Q00535 whole entry): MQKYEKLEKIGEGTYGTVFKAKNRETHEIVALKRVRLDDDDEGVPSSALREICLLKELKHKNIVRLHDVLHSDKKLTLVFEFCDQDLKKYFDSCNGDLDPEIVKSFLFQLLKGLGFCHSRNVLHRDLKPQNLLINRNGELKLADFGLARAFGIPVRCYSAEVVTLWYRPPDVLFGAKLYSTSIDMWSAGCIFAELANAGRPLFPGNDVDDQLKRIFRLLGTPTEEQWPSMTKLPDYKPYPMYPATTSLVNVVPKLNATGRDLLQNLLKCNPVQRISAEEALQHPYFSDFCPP
# T7 sequence (Q15078 99-307 partner limits assumed): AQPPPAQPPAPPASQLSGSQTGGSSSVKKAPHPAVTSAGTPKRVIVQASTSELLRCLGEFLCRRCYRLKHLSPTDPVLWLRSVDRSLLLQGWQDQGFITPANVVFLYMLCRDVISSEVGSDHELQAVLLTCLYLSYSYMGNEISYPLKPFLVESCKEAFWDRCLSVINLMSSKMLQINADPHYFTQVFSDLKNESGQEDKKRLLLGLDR
# Method in brief: as §1
# PAK4 = molecular target: T8, PAK4 (Homo sapiens, UniProt O96013)
# T8 construct: purchased Reaction Biology Corp
# T8 sequence (O96013 whole entry): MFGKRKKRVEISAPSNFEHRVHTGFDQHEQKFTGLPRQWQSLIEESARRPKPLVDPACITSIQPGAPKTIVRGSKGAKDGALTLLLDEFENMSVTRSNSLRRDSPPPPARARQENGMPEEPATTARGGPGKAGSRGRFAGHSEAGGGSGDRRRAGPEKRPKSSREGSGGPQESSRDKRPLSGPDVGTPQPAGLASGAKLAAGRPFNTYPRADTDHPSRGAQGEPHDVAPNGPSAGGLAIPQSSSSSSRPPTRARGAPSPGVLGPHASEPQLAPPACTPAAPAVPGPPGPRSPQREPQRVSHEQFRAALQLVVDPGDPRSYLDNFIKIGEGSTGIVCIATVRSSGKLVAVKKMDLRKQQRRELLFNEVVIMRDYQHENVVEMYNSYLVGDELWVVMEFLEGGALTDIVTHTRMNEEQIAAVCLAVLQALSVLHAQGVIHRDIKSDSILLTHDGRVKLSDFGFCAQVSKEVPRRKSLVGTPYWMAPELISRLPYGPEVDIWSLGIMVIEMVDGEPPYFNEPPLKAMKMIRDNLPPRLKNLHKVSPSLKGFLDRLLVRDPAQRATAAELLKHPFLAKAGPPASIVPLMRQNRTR
# Method in brief: as §1
# DCAMKL2 = molecular target: T9, DCAMKL2 (Homo sapiens, UniProt Q8N568)
# T9 construct: purchased Reaction Biology Corp
# T9 sequence (Q8N568 1-766): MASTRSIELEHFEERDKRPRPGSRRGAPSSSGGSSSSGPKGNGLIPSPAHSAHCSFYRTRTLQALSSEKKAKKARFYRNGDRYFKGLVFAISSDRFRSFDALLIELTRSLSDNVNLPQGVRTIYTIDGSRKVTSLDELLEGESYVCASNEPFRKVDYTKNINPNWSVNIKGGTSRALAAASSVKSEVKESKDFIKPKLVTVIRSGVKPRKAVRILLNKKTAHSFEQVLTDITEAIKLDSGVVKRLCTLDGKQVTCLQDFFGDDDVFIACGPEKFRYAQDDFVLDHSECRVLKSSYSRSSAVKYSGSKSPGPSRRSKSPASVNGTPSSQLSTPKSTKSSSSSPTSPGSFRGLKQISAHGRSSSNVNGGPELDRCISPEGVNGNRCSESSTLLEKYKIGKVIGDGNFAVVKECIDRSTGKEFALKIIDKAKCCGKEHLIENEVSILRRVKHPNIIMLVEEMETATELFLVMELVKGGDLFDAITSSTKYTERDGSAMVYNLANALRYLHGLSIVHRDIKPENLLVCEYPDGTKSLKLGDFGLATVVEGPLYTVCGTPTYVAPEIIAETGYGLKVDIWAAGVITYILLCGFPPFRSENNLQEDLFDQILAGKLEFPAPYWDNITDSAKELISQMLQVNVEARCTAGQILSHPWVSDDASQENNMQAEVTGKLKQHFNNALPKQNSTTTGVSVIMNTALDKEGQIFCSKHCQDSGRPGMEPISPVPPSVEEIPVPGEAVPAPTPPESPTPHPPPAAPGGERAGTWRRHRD
# Method in brief: as §1
# [1] = read-out: % Enzyme Activity (relative to DMSO controls) Run 1
# [2] = read-out: % Enzyme Activity (relative to DMSO controls) Run 2
# T1 sequence (Q13882 whole entry): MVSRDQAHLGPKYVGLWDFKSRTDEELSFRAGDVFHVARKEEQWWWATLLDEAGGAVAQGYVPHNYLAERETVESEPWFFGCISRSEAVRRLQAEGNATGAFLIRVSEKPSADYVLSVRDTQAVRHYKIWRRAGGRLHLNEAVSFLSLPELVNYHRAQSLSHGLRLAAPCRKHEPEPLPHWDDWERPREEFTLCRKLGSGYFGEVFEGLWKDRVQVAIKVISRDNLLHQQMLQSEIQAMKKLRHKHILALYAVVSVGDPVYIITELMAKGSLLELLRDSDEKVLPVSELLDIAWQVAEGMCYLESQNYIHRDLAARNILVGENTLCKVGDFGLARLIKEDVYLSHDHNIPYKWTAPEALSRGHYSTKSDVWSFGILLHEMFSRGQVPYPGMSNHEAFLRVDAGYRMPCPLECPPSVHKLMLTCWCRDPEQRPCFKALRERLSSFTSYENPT
smiles,measurement,setting,value
C=CC(=O)Nc1cccc(Nc2nc(Nc3ccc(OCCOC)c(F)c3)ncc2F)c1 [Compound 2],inhibition at 3 µM,BRK,75%
same,remaining activity at 3 µM,BRK; [1],25.1%
same,remaining activity at 3 µM,BRK; [2],25%
same,inhibition at 3 µM,c-Kit,21.5%
same,remaining activity at 3 µM,c-Kit; [1],77.5%
same,remaining activity at 3 µM,c-Kit; [2],79.5%
same,inhibition at 3 µM,DAPK1,1.86%
same,remaining activity at 3 µM,DAPK1; [1],103%
same,remaining activity at 3 µM,DAPK1; [2],93.5%
same,inhibition at 3 µM,CAMK2a,-9.6%
same,remaining activity at 3 µM,CAMK2a; [1],109%
same,remaining activity at 3 µM,CAMK2a; [2],110%
same,inhibition at 3 µM,EPHA3,1.81%
same,remaining activity at 3 µM,EPHA3; [1],96.2%
same,remaining activity at 3 µM,EPHA3; [2],100%
same,inhibition at 3 µM,SRMS,-23.1%
same,remaining activity at 3 µM,SRMS; [1],124%
same,remaining activity at 3 µM,SRMS; [2],123%
same,inhibition at 3 µM,CDK5/p25,9.1%
same,remaining activity at 3 µM,CDK5/p25; [1],89.5%
same,remaining activity at 3 µM,CDK5/p25; [2],92.3%
same,inhibition at 3 µM,PAK4,2.45%
same,remaining activity at 3 µM,PAK4; [1],98.7%
same,remaining activity at 3 µM,PAK4; [2],96.4%
same,inhibition at 3 µM,DCAMKL2,0.18%
same,remaining activity at 3 µM,DCAMKL2; [1],100%
same,remaining activity at 3 µM,DCAMKL2; [2],99.5%

# — US9492471B2, “Methods of treating a disease or disorder associated with Bruton'S Tyrosine Kinase” (Celgene Avilomics Research, Inc., priority 2013, dated 2016)
